In PMC8185074, “Anchor extension: a structure-guided approach to design cyclic peptides targeting enzyme active sites” (Nature Communications, 2021):
Peptide text beside a SMILES is read from it.

Assays:
Format in all cases: biochemical
HDAC2 = molecular target: T1, HDAC2 (Homo sapiens, UniProt Q92769); test: HDAC2 inhibition, full IC50 measurement (Reaction Biology; fluorogenic p53 peptide RHKK(Ac)AMC)
T1 construct: purchased Reaction Biology Corporation (assay run by the CRO)
Summary of the method: (§1)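 Inhibitory peptides were acoustically dispensed with enzyme, then substrate added; 1 h at 30 °C. Developer stopped reaction; plateau endpoint fluorescence (360/460 nm) gave IC50.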

HDAC1 = molecular target: T2, HDAC1 (Homo sapiens, UniProt Q13547); test: HDAC1 inhibition, full IC50 measurement (Reaction Biology; fluorogenic p53 peptide RHKK(Ac)AMC); settings: t1/t2 replicates
T2 construct: purchased Reaction Biology Corporation (assay run by the CRO)
Summary of the method: as §1

HDAC8 = molecular target: T3, HDAC8 (Homo sapiens, UniProt Q9BY41); test: HDAC8 inhibition, full IC50 measurement (Reaction Biology; fluorogenic p53 peptide RHKK(Ac)AMC); settings: t1/t2 replicates
T3 construct: purchased Reaction Biology Corporation (assay run by the CRO)
T3 sequence (Q9BY41 1-377): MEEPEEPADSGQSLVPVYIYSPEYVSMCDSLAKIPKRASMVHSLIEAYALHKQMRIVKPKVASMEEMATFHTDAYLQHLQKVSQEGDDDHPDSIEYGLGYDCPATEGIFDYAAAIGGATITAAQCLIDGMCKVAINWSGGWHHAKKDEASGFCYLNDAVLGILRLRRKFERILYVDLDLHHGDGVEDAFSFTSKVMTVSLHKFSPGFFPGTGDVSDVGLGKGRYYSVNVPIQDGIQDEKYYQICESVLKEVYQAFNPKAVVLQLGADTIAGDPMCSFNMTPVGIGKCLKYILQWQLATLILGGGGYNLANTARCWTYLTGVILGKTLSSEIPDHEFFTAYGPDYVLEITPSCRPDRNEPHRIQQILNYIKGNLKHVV
Summary of the method: as §1

T1 sequence (Q92769 whole entry): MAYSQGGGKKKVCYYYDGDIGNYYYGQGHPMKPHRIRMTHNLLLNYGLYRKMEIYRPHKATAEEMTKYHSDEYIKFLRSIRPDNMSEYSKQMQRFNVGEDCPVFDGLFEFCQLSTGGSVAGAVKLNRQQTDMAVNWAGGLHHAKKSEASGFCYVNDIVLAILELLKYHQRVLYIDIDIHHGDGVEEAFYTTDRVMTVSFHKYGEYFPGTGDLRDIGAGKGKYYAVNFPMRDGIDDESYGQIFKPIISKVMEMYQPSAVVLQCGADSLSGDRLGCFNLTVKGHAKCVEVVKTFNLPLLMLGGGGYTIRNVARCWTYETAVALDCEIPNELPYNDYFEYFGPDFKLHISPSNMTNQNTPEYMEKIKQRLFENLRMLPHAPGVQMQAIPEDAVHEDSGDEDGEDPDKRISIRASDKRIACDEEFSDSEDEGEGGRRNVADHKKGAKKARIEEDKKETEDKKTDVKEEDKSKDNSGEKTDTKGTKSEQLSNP
T2 sequence (Q13547 whole entry): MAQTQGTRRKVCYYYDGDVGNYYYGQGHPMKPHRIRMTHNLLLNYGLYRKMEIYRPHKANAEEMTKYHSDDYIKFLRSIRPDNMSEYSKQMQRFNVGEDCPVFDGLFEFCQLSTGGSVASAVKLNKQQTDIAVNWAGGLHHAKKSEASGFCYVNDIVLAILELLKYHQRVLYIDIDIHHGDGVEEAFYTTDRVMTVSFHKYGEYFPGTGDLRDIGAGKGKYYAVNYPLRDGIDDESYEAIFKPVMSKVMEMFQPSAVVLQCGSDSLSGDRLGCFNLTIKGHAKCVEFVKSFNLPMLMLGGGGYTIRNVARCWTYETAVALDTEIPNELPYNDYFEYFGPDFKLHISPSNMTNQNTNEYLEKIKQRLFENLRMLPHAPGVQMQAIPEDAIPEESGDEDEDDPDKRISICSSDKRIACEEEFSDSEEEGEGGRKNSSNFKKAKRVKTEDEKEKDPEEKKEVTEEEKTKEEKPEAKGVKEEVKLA

With `N=C(N)NCCC[C@@H]1NC(=O)[C@@H](CCCNC(=N)N)NC(=O)[C@H]2CCCN2C(=O)[C@@H](Cc2c[nH]cn2)NC(=O)[C@H](Cc2ccc(O)cc2)NC(=O)[C@H](CCCCCS)NC(=O)[C@H](CCc2ccccc2)NC(=O)[C@@H](CO)NC(=O)[C@H](CC(=O)O)NC1=O` [des3.3.1, SHA-Tyr-dHis-dPro-dArg-Arg-Asp-dSer-C27] (HELM PEPTIDE1{[O=C([C@H](CCCCCS)N[*:1])[*:2]].Y.[dH].[dP].[dR].R.D.[dS].[O=C([C@H](CCc1ccccc1)N[*:1])[*:2]]}$PEPTIDE1,PEPTIDE1,1:R1-9:R2$$$V2.0) the “HDAC2 activity raw data (signal)” value (HDAC2; Conc. 1.00E-06 M, t1) was 33408, the “HDAC2 activity raw data (signal)” value (HDAC2; Conc. 1.00E-06 M, t2) was 20115 and the “HDAC2 activity raw data (signal)” value (HDAC2; Conc. 1.11E-07 M, t1) was 236730. The “HDAC2 activity raw data (signal)” value (HDAC2; Conc. 1.11E-07 M, t2) was 242180, the “HDAC2 activity raw data (signal)” value (HDAC2; Conc. 1.23E-08 M, t1) was 774356 and the “HDAC2 activity raw data (signal)” value (HDAC2; Conc. 1.23E-08 M, t2) was 764329. For the same compound, the “HDAC2 activity raw data (signal)” value (HDAC2; Conc. 1.37E-09 M, t1) was 1033572, the “HDAC2 activity raw data (signal)” value (HDAC2; Conc. 1.37E-09 M, t2) was 1142758 and the “HDAC2 activity raw data (signal)” value (HDAC2; Conc. 1.52E-10 M, t1) was 1093848. For the same compound, the “HDAC2 activity raw data (signal)” value (HDAC2; Conc. 1.52E-10 M, t2) was 1228270, the “HDAC2 activity raw data (signal)” value (HDAC2; Conc. 3.33E-07 M, t1) was 99662 and the “HDAC2 activity raw data (signal)” value (HDAC2; Conc. 3.33E-07 M, t2) was 91701. The “HDAC2 activity raw data (signal)” value (HDAC2; Conc. 3.70E-08 M, t1) was 494195, the “HDAC2 activity raw data (signal)” value (HDAC2; Conc. 3.70E-08 M, t2) was 473509 and the “HDAC2 activity raw data (signal)” value (HDAC2; Conc. 4.12E-09 M, t1) was 948142. For the same compound, the “HDAC2 activity raw data (signal)” value (HDAC2; Conc. 4.12E-09 M, t2) was 1005576, the “HDAC2 activity raw data (signal)” value (HDAC2; Conc. 4.57E-10 M, t1) was 1113632 and the “HDAC2 activity raw data (signal)” value (HDAC2; Conc. 4.57E-10 M, t2) was 1221209. For the same compound, the “HDAC2 activity raw data (signal)” value (HDAC2; Conc. 5.08E-11 M, t1) was 1186904, the “HDAC2 activity raw data (signal)” value (HDAC2; Conc. 5.08E-11 M, t2) was 1232500 and the “HDAC1 activity raw data (signal)” value (HDAC1; peptide conc. 1.00E-06 M, listed as des3.3.1_t1) was 15410. The “HDAC1 activity raw data (signal)” value (HDAC1; peptide conc. 1.00E-06 M, listed as des3.3.1_t2) was 7555, the “HDAC1 activity raw data (signal)” value (HDAC1; peptide conc. 1.11E-07 M, listed as des3.3.1_t1) was 112128 and the “HDAC1 activity raw data (signal)” value (HDAC1; peptide conc. 1.11E-07 M, listed as des3.3.1_t2) was 105674. The “HDAC1 activity raw data (signal)” value (HDAC1; peptide conc. 1.23E-08 M, listed as des3.3.1_t1) was 518542, the “HDAC1 activity raw data (signal)” value (HDAC1; peptide conc. 1.23E-08 M, listed as des3.3.1_t2) was 461507 and the “HDAC1 activity raw data (signal)” value (HDAC1; peptide conc. 1.37E-09 M, listed as des3.3.1_t1) was 889775. The “HDAC1 activity raw data (signal)” value (HDAC1; peptide conc. 1.37E-09 M, listed as des3.3.1_t2) was 866345, the “HDAC1 activity raw data (signal)” value (HDAC1; peptide conc. 1.52E-10 M, listed as des3.3.1_t1) was 1024825 and the “HDAC1 activity raw data (signal)” value (HDAC1; peptide conc. 1.52E-10 M, listed as des3.3.1_t2) was 1088311. The “HDAC1 activity raw data (signal)” value (HDAC1; peptide conc. 3.33E-07 M, listed as des3.3.1_t1) was 46006, the “HDAC1 activity raw data (signal)” value (HDAC1; peptide conc. 3.33E-07 M, listed as des3.3.1_t2) was 42579 and the “HDAC1 activity raw data (signal)” value (HDAC1; peptide conc. 3.70E-08 M, listed as des3.3.1_t1) was 265387. For the same compound, the “HDAC1 activity raw data (signal)” value (HDAC1; peptide conc. 3.70E-08 M, listed as des3.3.1_t2) was 253770, the “HDAC1 activity raw data (signal)” value (HDAC1; peptide conc. 4.12E-09 M, listed as des3.3.1_t1) was 789498 and the “HDAC1 activity raw data (signal)” value (HDAC1; peptide conc. 4.12E-09 M, listed as des3.3.1_t2) was 714925. For the same compound, the “HDAC1 activity raw data (signal)” value (HDAC1; peptide conc. 4.57E-10 M, listed as des3.3.1_t1) was 1015951, the “HDAC1 activity raw data (signal)” value (HDAC1; peptide conc. 4.57E-10 M, listed as des3.3.1_t2) was 1019110 and the “HDAC1 activity raw data (signal)” value (HDAC1; peptide conc. 5.08E-11 M, listed as des3.3.1_t1) was 1072870. For the same compound, the “HDAC1 activity raw data (signal)” value (HDAC1; peptide conc. 5.08E-11 M, listed as des3.3.1_t2) was 1116290, the “HDAC8 activity raw data (signal)” value (HDAC8; peptide conc. 1.00E-05 M, listed as des3.3.1_t1) was 1764805 and the “HDAC8 activity raw data (signal)” value (HDAC8; peptide conc. 1.00E-05 M, listed as des3.3.1_t2) was 2650341. For the same compound, the “HDAC8 activity raw data (signal)” value (HDAC8; peptide conc. 1.11E-06 M, listed as des3.3.1_t1) was 12709203, the “HDAC8 activity raw data (signal)” value (HDAC8; peptide conc. 1.11E-06 M, listed as des3.3.1_t2) was 10450749 and the “HDAC8 activity raw data (signal)” value (HDAC8; peptide conc. 1.23E-07 M, listed as des3.3.1_t1) was 26946160. For the same compound, the “HDAC8 activity raw data (signal)” value (HDAC8; peptide conc. 1.23E-07 M, listed as des3.3.1_t2) was 26450742, the “HDAC8 activity raw data (signal)” value (HDAC8; peptide conc. 1.37E-08 M, listed as des3.3.1_t1) was 39769433 and the “HDAC8 activity raw data (signal)” value (HDAC8; peptide conc. 1.37E-08 M, listed as des3.3.1_t2) was 37609928. For the same compound, the “HDAC8 activity raw data (signal)” value (HDAC8; peptide conc. 1.52E-09 M, listed as des3.3.1_t1) was 46887256, the “HDAC8 activity raw data (signal)” value (HDAC8; peptide conc. 1.52E-09 M, listed as des3.3.1_t2) was 44277806 and the “HDAC8 activity raw data (signal)” value (HDAC8; peptide conc. 3.33E-06 M, listed as des3.3.1_t1) was 5825269. For the same compound, the “HDAC8 activity raw data (signal)” value (HDAC8; peptide conc. 3.33E-06 M, listed as des3.3.1_t2) was 6935130, the “HDAC8 activity raw data (signal)” value (HDAC8; peptide conc. 3.70E-07 M, listed as des3.3.1_t1) was 21428540 and the “HDAC8 activity raw data (signal)” value (HDAC8; peptide conc. 3.70E-07 M, listed as des3.3.1_t2) was 18809141. For the same compound, the “HDAC8 activity raw data (signal)” value (HDAC8; peptide conc. 4.12E-08 M, listed as des3.3.1_t1) was 34070523, the “HDAC8 activity raw data (signal)” value (HDAC8; peptide conc. 4.12E-08 M, listed as des3.3.1_t2) was 34526681 and the “HDAC8 activity raw data (signal)” value (HDAC8; peptide conc. 4.57E-09 M, listed as des3.3.1_t1) was 42350569. The “HDAC8 activity raw data (signal)” value (HDAC8; peptide conc. 4.57E-09 M, listed as des3.3.1_t2) was 43646566, the “HDAC8 activity raw data (signal)” value (HDAC8; peptide conc. 5.08E-10 M, listed as des3.3.1_t1) was 45458566 and the “HDAC8 activity raw data (signal)” value (HDAC8; peptide conc. 5.08E-10 M, listed as des3.3.1_t2) was 46659013.
